Measurements published in the NIST ThermoML archive (doi:10.1021/acs.jced.9b00540).

Tests used:
[1] = Liquid, Falling or rolling sphere viscometry
[2] = xn = mol fraction of the nth substance listed; details: Liquid, x2 = 0

CCOC(F)(C(F)(F)C(F)(F)C(F)(F)F)C(F)(C(F)(F)F)C(F)(F)F (stereo not given) [2-trifluoromethyl-3-ethoxydodecafluorohexane]
viscosity [mPa·s], [1]
Details | 100 kPa | 20000 kPa | 40000 kPa | 60000 kPa | 80000 kPa | 100000 kPa
293.15 K | 1.369 | 1.894 | 2.645 | 3.622 | 4.894 | 6.553
313.15 K | 0.983 | 1.356 | 1.869 | 2.51 | 3.31 | 4.307
333.15 K | 0.739 | 1.032 | 1.41 | 1.87 | 2.427 | 3.105
353.15 K | 0.576 | 0.799 | 1.084 | 1.418 | 1.808 | 2.265

CC(C)OC(C)C [diisopropyl ether]
viscosity [mPa·s], [1]
Details | 100 kPa | 20000 kPa | 40000 kPa | 60000 kPa | 80000 kPa | 100000 kPa
293.15 K | 0.33 | 0.396 | 0.466 | 0.542 | 0.625 | 0.715
313.15 K | 0.27 | 0.332 | 0.392 | 0.454 | 0.52 | 0.588
333.15 K | 0.225 | 0.282 | 0.342 | 0.402 | 0.46 | 0.517
353.15 K | – | 0.258 | 0.308 | 0.358 | 0.408 | 0.457

CC(C)OC(C)C [diisopropyl ether] + CCOC(F)(C(F)(F)C(F)(F)C(F)(F)F)C(F)(C(F)(F)F)C(F)(F)F
viscosity [mPa·s], [2]
Details | 293.15 K | 313.15 K | 333.15 K | 353.15 K
100 kPa, Capillary tube (Ostwald / Ubbelohde) method | 0.33 | 0.27 | 0.225 | –
20000 kPa, Falling or rolling sphere viscometry | 0.396 | 0.332 | 0.282 | 0.258
40000 kPa, Falling or rolling sphere viscometry | 0.466 | 0.392 | 0.342 | 0.308
60000 kPa, Falling or rolling sphere viscometry | 0.542 | 0.454 | 0.402 | 0.358
80000 kPa, Falling or rolling sphere viscometry | 0.625 | 0.52 | 0.46 | 0.408
100000 kPa, Falling or rolling sphere viscometry | 0.715 | 0.588 | 0.517 | 0.457
